Substitutions are numbered along the chain they refer to.
Legend:
[1] = test system: T1, Lysosomal alpha-mannosidase (Homo sapiens), O00754 [L565P]; assay: Chaperone activity at human Lysosomal alpha-mannosidase L565P mutant transfected in human […] knockout HAP1 cells assessed as enzyme activity enhancement at 20 uM incubated for 96 hrs relative to control
T1 sequence (whole entry): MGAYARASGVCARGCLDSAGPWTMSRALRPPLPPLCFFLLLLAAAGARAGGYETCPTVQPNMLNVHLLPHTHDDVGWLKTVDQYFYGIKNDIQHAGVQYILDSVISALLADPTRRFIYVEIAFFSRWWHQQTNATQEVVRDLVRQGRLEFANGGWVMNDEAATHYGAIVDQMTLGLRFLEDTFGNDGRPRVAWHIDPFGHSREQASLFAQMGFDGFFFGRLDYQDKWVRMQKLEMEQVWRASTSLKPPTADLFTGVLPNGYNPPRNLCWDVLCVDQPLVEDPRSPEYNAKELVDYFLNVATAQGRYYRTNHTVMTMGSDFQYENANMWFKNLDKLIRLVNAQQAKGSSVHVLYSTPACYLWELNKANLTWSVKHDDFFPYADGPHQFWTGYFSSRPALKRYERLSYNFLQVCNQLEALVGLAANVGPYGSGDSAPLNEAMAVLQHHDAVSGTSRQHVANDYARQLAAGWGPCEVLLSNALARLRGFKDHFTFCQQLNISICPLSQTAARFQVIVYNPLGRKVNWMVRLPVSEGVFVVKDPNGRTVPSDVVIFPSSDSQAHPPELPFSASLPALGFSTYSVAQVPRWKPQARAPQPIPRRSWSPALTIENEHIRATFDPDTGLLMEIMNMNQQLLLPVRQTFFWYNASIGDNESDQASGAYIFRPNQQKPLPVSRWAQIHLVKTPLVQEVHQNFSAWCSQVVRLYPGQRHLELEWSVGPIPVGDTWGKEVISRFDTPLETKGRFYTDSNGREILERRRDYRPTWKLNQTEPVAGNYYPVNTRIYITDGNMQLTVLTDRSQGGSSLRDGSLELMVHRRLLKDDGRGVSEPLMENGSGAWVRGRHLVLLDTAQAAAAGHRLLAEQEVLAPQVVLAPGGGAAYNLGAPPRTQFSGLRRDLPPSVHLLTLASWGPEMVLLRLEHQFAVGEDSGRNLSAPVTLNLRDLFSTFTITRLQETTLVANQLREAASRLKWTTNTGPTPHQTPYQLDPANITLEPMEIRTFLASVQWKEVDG

[2] = test system: T2, Lysosomal alpha-mannosidase (Homo sapiens), O00754 [R916C]; assay: Chaperone activity at human Lysosomal alpha-mannosidase R916C mutant transfected in human […] knockout HAP1 cells assessed as enzyme activity enhancement at 20 uM incubated for 96 hrs relative to control
T2 sequence (whole entry): T1 sequence (whole entry) with P565L, R916C

CC(C)(C)OC(=O)NCCCCCCCCCN[C@@H]1[C@@H](O)[C@@H](O)[C@H](O)[C@H]2COC(=O)N21
Activity [1]: 5%
Activity [2]: 63%

COC[C@H]1O[C@@H]2O[C@H]3[C@H](OC)[C@@H](OC)[C@@H](O[C@H]4[C@H](OC)[C@@H](OC)[C@@H](O[C@H]5[C@H](OC)[C@@H](OC)[C@@H](O[C@H]6[C@H](OC)[C@@H](OC)[C@@H](O[C@H]7[C@H](OC)[C@@H](OC)[C@@H](O[C@H]8[C@H](OC)[C@@H](OC)[C@@H](O[C@H]1[C@H](OC)[C@H]2OC)O[C@@H]8COC)O[C@@H]7COC)O[C@@H]6COC)O[C@@H]5COCc1cn(CCCCCCN[C@@H]2[C@@H](O)[C@@H](O)[C@H](O)[C@H]5COC(=O)N52)nn1)O[C@@H]4COC)O[C@@H]3COC
Activity [1]: 0%
Activity [2]: 11%

From ChEMBL document CHEMBL4396870, “Pharmacological Chaperones for the Treatment of α-Mannosidosis” (J Med Chem, 2019)
